“And” between values parts separate entries of the source, which are not always exact repeats. Equal entries are not always repeated. The source made the active and inactive calls. The rule behind the calls is not given here.
biological target: Ubiquitin-conjugating enzyme E2 N (Homo sapiens) (UniProt P61088); test: UBC13 polyubiquitination inhibitors, SAR follow-up, biochemical, TR-FRET, set 4 (AID 602404)
Sequence (P61088 whole entry, looked up): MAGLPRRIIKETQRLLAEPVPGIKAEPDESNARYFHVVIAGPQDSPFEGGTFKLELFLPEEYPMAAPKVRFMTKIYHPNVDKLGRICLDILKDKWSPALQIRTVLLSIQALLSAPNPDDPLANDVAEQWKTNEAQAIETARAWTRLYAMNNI

Row | SMILES | IC50
1 | Cc1cc(C)cc(NC(=O)C2CCCN(c3ncnc4c3nc3n4CCCCC3)C2)c1 (stereo not given) | inactive
2 | O=C(C1CCN(c2ncnc3c2nc2n3CCCCC2)CC1)N1CCN(c2ncccn2)CC1 | inactive
3 | COc1cc(Cl)c(C)cc1NC(=O)C1CCN(c2ncnc3c2nc2n3CCCCC2)CC1 | > 100 µM (inactive)
4 | O=C(NCCCN1CCCCC1)C1CCN(c2ncnc3c2nc2n3CCCCC2)CC1 | 3.42 µM
5 | Cc1ccc(NC(=O)C2CCN(c3ncnc4c3nc3n4CCCC3)CC2)cc1C | inactive
6 | O=C(Nc1cc(F)ccc1F)C1CCN(c2ncnc3c2nc2n3CCCCC2)CC1 | inactive
7 | O=C(NCC1CCN(Cc2cccc(Cl)c2)CC1)[C@H]1CCCN(c2ncnc3c2nc2n3CCCC2)C1 | 2.66 µM
8 | O=C(C1CCN(c2ncnc3c2nc2n3CCCCC2)CC1)N1CCC(Cc2ccccc2)CC1 | 14 µM
9 | O=C(NCC1CCN(Cc2cccc(Cl)c2)CC1)[C@@H]1CCCN(c2ncnc3c2nc2n3CCCC2)C1 | 0.781 µM
10 | O=C(NCC1CCN(Cc2ccc(F)cc2)CC1)C1CCCN(c2ncnc3c2nc2n3CCCCC2)C1 (stereo not given) | 2.87 µM
11 | Cc1ccc(C)c(CN2CCC(CNC(=O)C3CCCN(c4ncnc5c4nc4n5CCCCC4)C3)CC2)c1 (stereo not given) | 2.69 µM
12 | Cc1cc(Cl)ccc1NC(=O)C1CCN(c2ncnc3c2nc2n3CCCCC2)CC1 | inactive
13 | Cc1ccc(NC(=O)C2CCN(c3ncnc4c3nc3n4CCCCC3)CC2)cc1Cl | 3.95 µM
14 | COc1ccc(NC(=O)C2CCN(c3ncnc4c3nc3n4CCCCC3)CC2)cc1Cl | inactive
15 | Cc1cccc(NC(=O)C2CCN(c3ncnc4c3nc3n4CCCC3)CC2)c1 | inactive
16 | O=C(NCC1CCN(Cc2ccccc2F)CC1)C1CCCN(c2ncnc3c2nc2n3CCCCC2)C1 (stereo not given) | 8.42 µM
17 | O=C(NCC1CCN(Cc2ccccc2Cl)CC1)C1CCCN(c2ncnc3c2nc2n3CCCCC2)C1 (stereo not given) | 2.28 µM
18 | COc1ccc(Cl)cc1NC(=O)C1CCN(c2ncnc3c2nc2n3CCCCC2)CC1 | inactive
19 | Cc1ccc(NC(=O)C2CCCN(c3ncnc4c3nc3n4CCCC3)C2)cc1Br (stereo not given) | inactive
20 | Cc1cc(C)cc(NC(=O)C2CCCN(c3ncnc4c3nc3n4CCCC3)C2)c1 (stereo not given) | inactive
21 | O=C(NCc1ccc(Cl)c(Cl)c1)C1CCCN(c2ncnc3c2nc2n3CCCC2)C1 (stereo not given) | inactive
22 | Cc1ccccc1CN1CCC(CNC(=O)C2CCCN(c3ncnc4c3nc3n4CCCCC3)C2)CC1 (stereo not given) | 3.55 µM
23 | Cc1cc(C)cc(NC(=O)C2CCN(c3ncnc4c3nc3n4CCCCC3)CC2)c1 | > 100 µM (inactive)
24 | O=C(NCC1CCN(Cc2ccc(Cl)c(Cl)c2)CC1)C1CCCN(c2ncnc3c2nc2n3CCCC2)C1 (stereo not given) | 5.74 µM
25 | O=C(NCC1CCN(Cc2ccc(Cl)cc2)CC1)C1CCCN(c2ncnc3c2nc2n3CCCC2)C1 (stereo not given) | 6.79 µM

Row | SMILES | IC50
26 | Cc1ccc(NC(=O)C2CCN(c3ncnc4c3nc3n4CCCCC3)CC2)c(Cl)c1 | > 100 µM (inactive)
27 | Cc1ccc(NC(=O)C2CCN(c3ncnc4c3nc3n4CCCC3)CC2)cc1F | inactive
28 | O=C(NCCCN1CCN(c2ccccc2)CC1)C1CCCN(c2ncnc3c2nc2n3CCCCC2)C1 (stereo not given) | 3.06 µM
29 | Cc1ccc(NC(=O)C2CCN(c3ncnc4c3nc3n4CCCC3)CC2)cc1Br | inactive
30 | CC1CC(C)CN(C(=O)C2CCN(c3ncnc4c3nc3n4CCCCC3)CC2)C1 (stereo not given) | inactive
31 | Cc1ccc(C)c(N2CCN(CCCNC(=O)C3CCCN(c4ncnc5c4nc4n5CCCCC4)C3)CC2)c1 (stereo not given) | 9.51 µM
32 | O=C(NCC1CCN(Cc2ccc(Cl)c(Cl)c2)CC1)C1CCCN(c2ncnc3c2nc2n3CCCCC2)C1 (stereo not given) | 4.03 µM
33 | Cc1cccc(N2CCN(CCCNC(=O)C3CCCN(c4ncnc5c4nc4n5CCCCC4)C3)CC2C)c1 (stereo not given) | 19.1 µM
34 | O=C(C1CCN(c2ncnc3c2nc2n3CCCCC2)CC1)N1CCN(c2ccccn2)CC1 | inactive
35 | Cc1ccc(NC(=O)C2CCCN(c3ncnc4c3nc3n4CCCCC3)C2)cc1Br (stereo not given) | > 100 µM (inactive)
36 | O=C(Nc1cccc(Cl)c1)C1CCN(c2ncnc3c2nc2n3CCCCC2)CC1 | 5.75 µM
37 | Cc1ccc(NC(=O)C2CCN(c3ncnc4c3nc3n4CCCCC3)CC2)cc1F | inactive
38 | CN(CCNC(=O)C1CCN(c2ncnc3c2nc2n3CCCCC2)CC1)Cc1ccccc1 | 1.23 µM
39 | O=C(NCc1cccc(Cl)c1)C1CCCN(c2ncnc3c2nc2n3CCCC2)C1 (stereo not given) | > 100 µM (inactive)
40 | COc1cc(OC)c(NC(=O)C2CCN(c3ncnc4c3nc3n4CCCCC3)CC2)cc1Cl | inactive
41 | O=C(NCCCN1CCN(c2ccc(F)cc2)CC1)C1CCCN(c2ncnc3c2nc2n3CCCCC2)C1 (stereo not given) | 2.22 µM
42 | O=C(C1CCN(c2ncnc3c2nc2n3CCCCC2)CC1)N1CCN(c2ccc(F)cc2)CC1 | inactive
43 | O=C(Nc1ccc(F)c(Cl)c1)C1CCN(c2ncnc3c2nc2n3CCCCC2)CC1 | 5.67 µM
44 | Cc1cccc(NC(=O)C2CCN(c3ncnc4c3nc3n4CCCCC3)CC2)c1 | inactive
45 | CC1CCCCN1C(=O)C1CCN(c2ncnc3c2nc2n3CCCCC2)CC1 (stereo not given) | > 100 µM (inactive)
46 | Cc1cccc(NC(=O)C2CCCN(c3ncnc4c3nc3n4CCCCC3)C2)c1 (stereo not given) | > 100 µM (inactive)
47 | O=C(NCc1ccc(Cl)c(Cl)c1)C1CCCN(c2ncnc3c2nc2n3CCCCC2)C1 (stereo not given) | > 100 µM (inactive)
48 | O=C(C1CCN(c2ncnc3c2nc2n3CCCCC2)CC1)N1CCOCC1 | inactive
49 | O=C(NCc1cccc(Cl)c1)C1CCCN(c2ncnc3c2nc2n3CCCCC2)C1 (stereo not given) | inactive

Now from value to compound:

Row | IC50 | SMILES
50 | 1.04 µM | O=C(NCC1CCN(Cc2ccccc2Cl)CC1)C1CCCN(c2ncnc3c2nc2n3CCCC2)C1 (stereo not given)
51 | inactive | Cc1cc(C)cc(NC(=O)C2CCN(c3ncnc4c3nc3n4CCCC3)CC2)c1
52 | 2.75 µM | O=C(NCC1CCN(Cc2ccc(Cl)cc2)CC1)C1CCCN(c2ncnc3c2nc2n3CCCCC2)C1 (stereo not given)
53 | 5.66 µM | CCC1CCCCN1CCCNC(=O)C1CCN(c2ncnc3c2nc2n3CCCCC2)CC1 (stereo not given)
54 | > 100 µM (inactive) | O=C(NCc1ccc(Cl)c(Cl)c1)C1CCN(c2ncnc3c2nc2n3CCCC2)CC1
55 | inactive | Cc1ccc(NC(=O)C2CCCN(c3ncnc4c3nc3n4CCCCC3)C2)cc1F (stereo not given)
56 | inactive | O=C(Nc1ccc(CN2CCCCC2)cc1)C1CCN(c2ncnc3c2nc2n3CCCCC2)CC1
57 | inactive | O=C(C1CCN(c2ncnc3c2nc2n3CCCCC2)CC1)N1CCN(c2ccccc2)CC1
58 | 12.6 µM | O=C(NCc1cccc(Cl)c1)C1CCN(c2ncnc3c2nc2n3CCCC2)CC1
59 | inactive | Cc1ccc(NC(=O)C2CCCN(c3ncnc4c3nc3n4CCCC3)C2)cc1F (stereo not given)
60 | 11.8 µM | Cc1c(Cl)cccc1NC(=O)C1CCN(c2ncnc3c2nc2n3CCCCC2)CC1
61 | inactive | COc1ccccc1N1CCN(CCCNC(=O)C2CCCN(c3ncnc4c3nc3n4CCCCC3)C2)CC1 (stereo not given)
62 | inactive | O=C(NCc1cccc(Cl)c1)C1CCN(c2ncnc3c2nc2n3CCCCC2)CC1
63 | 3.05 µM | O=C(C1CCN(c2ncnc3c2nc2n3CCCCC2)CC1)N1CCN(Cc2ccccc2)CC1
64 | 3.05 µM | CCCN1CCN(C(=O)C2CCN(c3ncnc4c3nc3n4CCCCC3)CC2)CC1
65 | inactive | Cc1cccc(NC(=O)C2CCN(c3ncnc4c3nc3n4CCCCC3)CC2)c1C
66 | inactive | Cc1cccc(NC(=O)C2CCCN(c3ncnc4c3nc3n4CCCC3)C2)c1 (stereo not given)
67 | 0.962 µM | O=C(NCC1CCN(Cc2cccc(Cl)c2)CC1)C1CCCN(c2ncnc3c2nc2n3CCCC2)C1 (stereo not given)
68 | inactive | Cc1ccc(NC(=O)C2CCCN(c3ncnc4c3nc3n4CCCC3)C2)cc1C (stereo not given)
69 | 8.74 µM | CC1CCCC(C)N1CCCNC(=O)C1CCCN(c2ncnc3c2nc2n3CCCCC2)C1 (stereo not given)
70 | 0.813 µM and 1.13 µM | O=C(NCC1CCN(Cc2cccc(Cl)c2)CC1)C1CCCN(c2ncnc3c2nc2n3CCCCC2)C1 (stereo not given)
71 | 15 µM | O=C(NCC1CCN(Cc2cccc(Cl)c2)CC1)[C@H]1CCCN(c2ncnc3c2nc2n3CCCCC2)C1
72 | > 100 µM (inactive) | O=C(NCc1ccc(Cl)c(Cl)c1)C1CCN(c2ncnc3c2nc2n3CCCCC2)CC1
73 | > 100 µM (inactive) | Cc1ccc(NC(=O)C2CCN(c3ncnc4c3nc3n4CCCCC3)CC2)cc1Br
74 | inactive | O=C(c1ccco1)N1CCN(C(=O)C2CCN(c3ncnc4c3nc3n4CCCCC3)CC2)CC1
75 | 3.37 µM | O=C(NCC1CCN(Cc2cccc(Cl)c2)CC1)[C@@H]1CCCN(c2ncnc3c2nc2n3CCCCC2)C1

— PubChem BioAssay AID602404 (Sanford-Burnham Center for Chemical Genomics, 2012)
